Assay results published in patent US6380181B1, “Synthetic catechol derivatives, method for production and use thereof” (priority 1996, dated 2002).
Converted amounts (≈) assume the structure as drawn. Like-named read-outs stand apart in the source and are kept apart here.

Key:
Type in all cases: cell-based
[1] = tested on: Pseudomonas aeruginosa SG 137 (carbenicillin-resistant); assay: Agar diffusion test; conditions: concentration 100 μg/ml, P. aeruginosa SG 137
[2] = tested on: Pseudomonas aeruginosa KW 799 WT (wild type); assay: Agar diffusion test; conditions: concentration 100 μg/ml, P. aeruginosa KW799/WT
[3] = tested on: Pseudomonas aeruginosa KW 799/61 (penetration mutant); conditions: P. aeruginosa KW799/61
[4] = tested on: E. coli DC2 (penetration mutant); conditions: concentration 100 μg/ml
[5] = tested on: E. coli DC0 (wild type); assay: Agar diffusion test; conditions: concentration 100 μg/ml
[6] = tested on: Stenotrophomonas maltophilia GN 12873; assay: Agar diffusion test; conditions: concentration 100 μg/ml
[7] = tested on: Salmonella gallinarum ATCC 9184; conditions: concentration 100 μg/ml, Salmonella galinarum ATCC 9184
[8] = tested on: E. coli ATCC 25922; assay: Microdilution test (MIC)
Experimental: (§1) The minimum inhibiting concentrations (MICs) were determined for the following bacterial strains: Pseudomonas aeruginosa NCTC 10701, NCTC 10662, SG 137, ATCC 27853, KW 799 WT and KW 799/61, E. coli DCO, DC2 and ATCC 25922, Serratia marcescens SG 621; Salmonella gallinarum ATCC 9184, Klebsiella pneumoniae ATCC 10031 and SG 117.

[9] = tested on: Klebsiella pneumoniae ATCC 10031; assay: Microdilution test (MIC)
Experimental: as §1

[10] = tested on: Pseudomonas aeruginosa NCTC 10662; assay: Microdilution test (MIC); conditions: P. aeruginosa NCTC 10662
Experimental: as §1

[11] = tested on: Pseudomonas aeruginosa SG 137; assay: Microdilution test (MIC); conditions: P. aeruginosa SG 137
Experimental: as §1

[12] = tested on: Serratia marcescens SG 621; assay: Microdilution test (MIC)
Experimental: as §1

[13] = tested on: E. coli DC0; assay: Microdilution test (MIC); conditions: E. coli DC0
Experimental: as §1
(§2) With the test germs KW 799/WT and /61 of Pseudomonas and DCO and DC2 of E. coli, the effect of improved penetration capacity on the efficacy of the substances was investigated.

[14] = tested on: Pseudomonas aeruginosa KW 799 WT; assay: Microdilution test (MIC); conditions: P. aeruginosa KW 799/WT
Experimental: as §1, §2

[15] = tested on: Pseudomonas aeruginosa KW 799/61; assay: Microdilution test (MIC)
Experimental: as §1, §2

[16] = tested on: E. coli DC2; assay: microbe, parasite or virus in culture
Experimental: as §1, §2

[17] = tested on: Stenotrophomonas maltophilia GN 12873; assay: Microdilution test (MIC)
[18] = tested on: Pseudomonas aeruginosa ATCC 27853 (wild type); assay: Agar diffusion test; conditions: concentration 100 μg/ml; P. aeruginosa ATCC 27853
[19] = tested on: Klebsiella pneumoniae ATCC 10031; assay: Agar diffusion test; conditions: concentration 100 μg/ml
[20] = tested on: Klebsiella pneumoniae SG 117; assay: Agar diffusion test; conditions: concentration 100 μg/ml
[21] = tested on: Pseudomonas aeruginosa ATCC 27853; assay: Microdilution test (MIC); conditions: P. aeruginosa ATCC 27853
Experimental: as §1

SMILES	inhibition spot diameter in the agar diffusion test ([3]; concentration 100 μg/ml) [mm]	MIC values, microdilution test [9] [µg/mL]	MIC values, microdilution test [11] [µg/mL]	MIC values, microdilution test [12] [µg/mL]	MIC values, microdilution test [13] [µg/mL]	MIC values, microdilution test [14] [µg/mL]	MIC values, microdilution test [15] [µg/mL]	inhibition spot diameter in the agar diffusion test [1] [mm]	inhibition spot diameter in the agar diffusion test [2] [mm]	inhibition spot diameter in the agar diffusion test [4] [mm]	inhibition spot diameter in the agar diffusion test [5] [mm]	inhibition spot diameter in the agar diffusion test [6] [mm]	inhibition spot diameter in the agar diffusion test [7] [mm]	inhibition spot diameter in the agar diffusion test [18] [mm]	inhibition spot diameter in the agar diffusion test [19] [mm]	inhibition spot diameter in the agar diffusion test [20] [mm]	MIC values, microdilution test [8] [µg/mL]	MIC values, microdilution test [21] [µg/mL]	MIC values, microdilution test [10] [µg/mL]	MIC values, microdilution test [17] [µg/mL]	also measured
CC(=O)Oc1cccc(C(=O)NCCCC[C@H](NC(=O)c2cccc(OC(C)=O)c2OC(C)=O)C(=O)N[C@@H](C(=O)N[C@@H]2C(=O)N3[C@@H]2SC(C)(C)[C@@H]3C(=O)O)c2ccccc2)c1OC(C)=O [Substance 31, N-[L-2,6-bis-(2,3-diacetoxybenzoylamino)-hexanoyl]-ampicillin]	37	0.4 (≈ 0.436 µM)	0.1 (≈ 0.109 µM)	25 (≈ 27.2 µM)	12.5 (≈ 13.6 µM)	0.78 (≈ 0.85 µM)	0.2 (≈ 0.218 µM)														inhibition spot diameter in the agar diffusion test ([1]; listed as 31): 28 mm; inhibition spot diameter in the agar diffusion test ([2]; listed as 31): 27 mm; inhibition spot diameter in the agar diffusion test ([4]; listed as 31): 33 mm; inhibition spot diameter in the agar diffusion test ([5]; listed as 31): 27 mm; inhibition spot diameter in the agar diffusion test ([6]; listed as 31): 23 mm; inhibition spot diameter in the agar diffusion test ([7]; listed as 31): 29 mm; MIC values, microdilution test ([8]; listed as 31): 0.78 µg/mL (≈ 0.85 µM); MIC values, microdilution test ([10]; listed as 31): 6.25 µg/mL (≈ 6.81 µM); MIC values, microdilution test [16]: 0.2 µg/mL (≈ 0.218 µM); MIC values, microdilution test ([17]; listed as 31): 0.4 µg/mL (≈ 0.436 µM)
CC(=O)OC[C@H](NC(=O)c1cccc(OC(C)=O)c1OC(C)=O)C(=O)N[C@@H](C(=O)N[C@@H]1C(=O)N2[C@@H]1SC(C)(C)[C@@H]2C(=O)O)c1ccccc1 [Substance 32, N-[L-3-Acetoxy-2-(2,3-diacetoxybenzoylamino)-propionyl]-ampicillin]	32		1.56 (≈ 2.23 µM)	25 (≈ 35.8 µM)	12.5 (≈ 17.9 µM)	1.56 (≈ 2.23 µM)	0.4 (≈ 0.572 µM)	16	25	28	22	19	28								
CC(=O)Oc1cccc(C(=O)Nc2cc(NC(=O)c3cccc(OC(C)=O)c3OC(C)=O)cc(C(=O)N[C@@H](C(=O)N[C@@H]3C(=O)N4[C@@H]3SC(C)(C)[C@@H]4C(=O)O)c3ccccc3)c2)c1OC(C)=O [Substance 36, N-[3,5-bis-(2,3-diacetoxy-benzoylamino)-benzoyl]-ampicillin]	29		0.4 (≈ 0.433 µM)					25	25	19	13	24	23	19	17	16	25 (≈ 27.1 µM)	3.12 (≈ 3.38 µM)	6.25 (≈ 6.76 µM)	1.56 (≈ 1.69 µM)	
CC(=O)Oc1cccc(C(=O)NCCCC[C@H](NC(=O)c2cccc(OC(C)=O)c2OC(C)=O)C(=O)N[C@@H](C(=O)N[C@@H]2C(=O)N3[C@@H]2SC(C)(C)[C@@H]3C(=O)O)c2ccc(O)cc2)c1OC(C)=O [Substance Na-35, N-[L-2,6-bis-(2,3-diacetoxy-benzoylamino)-hexanoyl)-amoxicillin]			0.1 (≈ 0.107 µM)					31	30	38	24	28	33	22	20	23	0.2 (≈ 0.214 µM)	1.56 (≈ 1.67 µM)	1.58 (≈ 1.69 µM)	6.25 (≈ 6.69 µM)	inhibition spot diameter in the agar diffusion test ([3]; [ ] at 50 μg/ml): [38] mm
COC(=O)Oc1cccc(C(=O)N(C)c2ccc(C(=O)N[C@@H](C(=O)N[C@@H]3C(=O)N4[C@@H]3SC(C)(C)[C@@H]4C(=O)O)c3ccccc3)cc2)c1OC(=O)OC [Substance Na-37, N-{4-[(2,3-di-methoxycarbonyloxy-benzoyl)-methyl-amino]-benzoyl}-ampicillin]	35	3.12 (≈ 4.25 µM)	0.4 (≈ 0.544 µM)					22	28	33	27	16	29	21	22	19	3.12 (≈ 4.25 µM)	3.12 (≈ 4.25 µM)	12.5 (≈ 17 µM)	6.25 (≈ 8.51 µM)	
